Measurements reported in US20230277568A1, “METHOD OF TREATMENT FOR […] PSILOCIN INFUSION” (Eleusis Therapeutics US, Inc., priority 2020, published 2023).
Entries after “also recorded” stand apart in the source; their conditions may differ.

Tests used:
WKY rats = assay: Forced swim test in rat model of depression; type: in vivo; conditions: FST 21 days after injection
Experimental: A rat model of depression was used to assess the antidepressant effect of psilocin alone or in combination with lorazepam. WKY rats were divided into 3 groups (n=8 animals per group) and treated with (i) 1 mg/kg of psilocin injected as a bolus dose into the tail vein (PSI); (ii) 1.8 mg/kg of lorazepam injected 30 i.p. minutes prior to a 1 mg/kg tail vein injection of psilocin (P+L); or (iii) saline (SAL; as a control group). The dose of lorazepam was chosen to be a moderate/low non-sedating but anxiolytic dose in rats after consultation with an expert in the field of benzodiazepine's effects in rats.
After injection treatment, rats were maintained in their home cage for three weeks (21 days) prior to testing by forced swim test (FST) as described in Hibicke et al., ACS Chem. Neurosci. 2020, 11, 6, 864-871.
Forced Swim Test methodology: During a pre-exposure, rats were placed into a plastic cylindrical tank (114 cm×30.5 cm) that contained 30 cm of water at 28-30° C. The water depth was such that the rats could not support themselves by touching the bottom of the tank with their hind paws, and their tails could not touch the bottom of the tank while keeping their noses above water. After a 15 min swim, the rats were removed, dried with paper towels, and replaced in their home cages. Fresh water was used for each animal. For the testing, a video camera was mounted to the side of the tank, and the rats were exposed to a 5 min swim under the conditions described above and then removed, dried with paper towels, and returned to their home cages. The 5 min swim was recorded for later scoring for immobility, swimming, and climbing. FST scoring was performed by a trained scorer. Immobility was defined as no active attempts to escape while maintaining a floating posture in which the rats make only the movements necessary to keep their heads above water. Swimming was defined as actively attempting escape with motions directed outward against the wall of the cylinder. Climbing was defined as actively attempting escape with motions directed upward against the wall of the cylinder.

5-HT2A receptor = 5-HT2A receptor (Homo sapiens, UniProt P28223); conditions: background statement; cited from earlier work
Chain of 5-HT2A receptor (P28223 whole entry): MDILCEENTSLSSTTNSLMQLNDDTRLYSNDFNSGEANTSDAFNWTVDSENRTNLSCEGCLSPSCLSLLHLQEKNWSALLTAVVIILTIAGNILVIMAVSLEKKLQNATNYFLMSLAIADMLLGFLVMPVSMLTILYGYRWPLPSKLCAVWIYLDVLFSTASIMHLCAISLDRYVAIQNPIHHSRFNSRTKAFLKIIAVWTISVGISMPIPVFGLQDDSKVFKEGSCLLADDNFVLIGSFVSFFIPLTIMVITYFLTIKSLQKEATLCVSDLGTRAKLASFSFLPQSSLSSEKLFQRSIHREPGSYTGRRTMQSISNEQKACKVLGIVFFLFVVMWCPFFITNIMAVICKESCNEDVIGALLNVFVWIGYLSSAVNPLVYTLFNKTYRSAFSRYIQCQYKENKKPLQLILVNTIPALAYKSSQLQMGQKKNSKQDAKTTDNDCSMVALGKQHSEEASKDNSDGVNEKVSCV

[1] = 1.8 mg/kg lorazepam i.p. 30 minutes prior to 1 mg/kg i.v. psilocin

**Q.** For O=C1Nc2ccc(Cl)cc2C(c2ccccc2Cl)=NC1O (centres unmarked) [Lorazepam], which “effect of lorazepam pretreatment on the effects of psilocin, immobility measure” value (WKY rats; [1]) is on record?
**A.** slight but significant effect to blunt the effects of psilocin

**Q.** And the “effect of lorazepam pretreatment on the effects of psilocin, swimming behavior” value (WKY rats; [1])?
**A.** no significant effect

**Q.** And the “effect of lorazepam pretreatment on the effects of psilocin, immobility measure” value (WKY rats; 1.8 mg/kg lorazepam i.p. 30 minutes prior to 1 mg/kg i.v. psilocin, listed as lorazepam)?
**A.** slight, but significant effect

**Q.** Which results are given for CN(C)CCc1c[nH]c2cccc(O)c12 [psilocin, 4-hydroxy-N,N-dimethyltrypamine]?
**A.** antidepressant-like behaviors in forced swim test (WKY rats; 1 mg/kg psilocin single i.v. bolus (tail vein), 1 mg/kg): as efficacious in producing long-lasting antidepressant-like behaviors in this model as a single i.p. administration of psilocybin of the same dose; also recorded: as efficacious in producing long-lasting antidepressant-like behaviors in our model as a single i.p. administration of psilocybin of the same dose; affinity for the 5-HT2A receptor (5-HT2A receptor): high affinity
